In publication PMC11156954, “Inhibition and transport mechanisms of the ABC transporter hMRP5” (Nature Communications, 2024):
“Also recorded” adds a separate entry of the source. No end group written: not given here.

Tests used:
GFP-hMRP5 = assay: Doxorubicin transport assay in Xenopus laevis oocytes; type: cell-based, human; conditions: oocytes expressing both hMRP5 and M5PI vs only hMRP5; 200 μM doxorubicin, 180 min; two-tailed t-test *P = 0.0442
Method: The transport assay was essentially done and modified as described. In brief, the cRNAs of C-terminal GFP-tagged hMRP5 and C-terminal mcherry-tagged M5PI were prepared from the linearized pcs2CAG vector DNA templates using the mMESSAGE mMACHINE T7 transcription system (Thermo Scientific, AM1344). Xenopus oocytes were injected with approximately 30 nl of cRNA (GFP-tagged hMRP5 and mcherry-tagged M5PI have the equal quantity 30 ng) or water after maintained in ND96 solution (96 mM NaCl, 2 mM KCl, 1 mM MgCl2, 1.8 mM CaCl2, 5 mM HEPES, pH 7.4) overnight. After 3 days of culture, the GFP and mcherry fluorescence of oocytes was detected using Nikon Confocal A1R, and oocytes showing similar fluorescence intensity were selected for assay. Then, oocytes were pre-incubated in Kulori buffer (90 mM NaCl, 1 mM KCl, 1 mM MgCl2, 5 mM HEPES, pH 7.4) for 5 min before being transferred to 1 ml Kulori buffer containing 200 μM doxorubicin for 180 min. The assay was stopped by removing the buffer and then washed with Kulori buffer at least 3 times and transferred into 1.5 ml tubes (3 oocytes per tube). Excess washing buffer was removed from the tube, and then 50 μl 50% methanol was added to the tube for oocyte homogenization by pipetting. The homogenized samples were centrifuged at 10,000 × g for 10 min at 4 °C, and the supernatants were transferred into new tubes and incubated at −20 °C until further analysis. The samples were acquired with a Q Exactive mass spectrometer coupled with UltiMate 3000 liquid chromatography system (Thermo scientific, CA, USA) after centrifugation at 20,000 × g for 15 min at 4 °C. A Hypersil GOLDTM C18 column (2.1 ×100 mm, 1.9 μm, Thermo Scientific) was used at a flow rate of 0.3 ml min^−1 for separation. Mobile phase A was 0.1% formic acid, while mobile phase B was acetonitrile modified with 0.1% formic acid. The mass spectrometer was operated in positive mode with a spray voltage of 3.5 kV. Full scan mass spectrometry data were recorded from the m/z range of 80–800. A standard dilution curve for quantification of doxorubicin was done. Statistical analysis of the transport assay results was performed using GraphPad Prism. Source data is provided as Source Data 6. The mass spectrometry data is provided as Supplementary Data 3.

hMRP5-Δ1-94 = target: T1, hMRP5-Δ1-94 (Homo sapiens, UniProt O15440); assay: MST binding assay, hMRP5-Δ1-94; conditions: MST, digitonin-purified hMRP5-Δ1-94, 15 min at room temperature
T1 construct: The codon-optimized full-length human ABCC5 gene encoding the MRP5 protein (UniProt ID: O15440); 8xHis (C); 2xstrep (C); made in house; host or cells: HEK293F
T1 sequence (O15440 95-1437 limits assumed, stated change not applied): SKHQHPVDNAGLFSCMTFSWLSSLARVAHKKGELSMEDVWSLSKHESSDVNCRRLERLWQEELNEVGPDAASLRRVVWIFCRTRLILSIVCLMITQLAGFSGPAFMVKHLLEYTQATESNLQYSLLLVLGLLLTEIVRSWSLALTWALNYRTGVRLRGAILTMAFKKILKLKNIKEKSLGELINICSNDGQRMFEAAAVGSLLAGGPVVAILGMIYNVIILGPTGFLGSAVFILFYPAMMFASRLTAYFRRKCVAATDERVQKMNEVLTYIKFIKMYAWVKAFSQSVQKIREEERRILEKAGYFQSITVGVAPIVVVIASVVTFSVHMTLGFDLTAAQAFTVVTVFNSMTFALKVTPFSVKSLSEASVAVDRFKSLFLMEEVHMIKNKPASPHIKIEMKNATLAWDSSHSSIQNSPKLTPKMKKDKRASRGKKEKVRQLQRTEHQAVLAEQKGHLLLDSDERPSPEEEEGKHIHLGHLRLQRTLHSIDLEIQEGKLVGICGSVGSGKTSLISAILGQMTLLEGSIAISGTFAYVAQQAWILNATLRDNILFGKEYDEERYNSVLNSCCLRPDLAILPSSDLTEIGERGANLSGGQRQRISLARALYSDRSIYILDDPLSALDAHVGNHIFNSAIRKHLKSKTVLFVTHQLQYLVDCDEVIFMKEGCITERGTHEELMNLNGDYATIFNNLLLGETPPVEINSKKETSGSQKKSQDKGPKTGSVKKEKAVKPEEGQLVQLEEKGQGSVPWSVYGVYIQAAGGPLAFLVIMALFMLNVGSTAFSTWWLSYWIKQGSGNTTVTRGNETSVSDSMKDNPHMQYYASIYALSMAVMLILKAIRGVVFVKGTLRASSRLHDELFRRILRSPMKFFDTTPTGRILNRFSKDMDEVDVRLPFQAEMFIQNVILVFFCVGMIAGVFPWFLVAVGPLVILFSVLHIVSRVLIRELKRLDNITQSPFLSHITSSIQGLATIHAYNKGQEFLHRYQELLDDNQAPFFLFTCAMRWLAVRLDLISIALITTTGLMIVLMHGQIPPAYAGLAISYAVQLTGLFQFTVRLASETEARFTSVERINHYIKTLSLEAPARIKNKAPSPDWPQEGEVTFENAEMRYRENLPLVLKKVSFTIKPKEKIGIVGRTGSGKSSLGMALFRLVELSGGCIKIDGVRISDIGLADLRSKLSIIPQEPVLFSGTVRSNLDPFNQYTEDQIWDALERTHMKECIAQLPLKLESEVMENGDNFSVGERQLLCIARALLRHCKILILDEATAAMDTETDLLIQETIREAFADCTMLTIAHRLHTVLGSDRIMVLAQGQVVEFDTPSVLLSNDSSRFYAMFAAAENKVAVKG
Method: We monitored the binding of different peptides to digitonin-purified hMRP5-Δ1-94-8xHis by MST assay (Monolith NT). HEPES buffer was used to replace Tris buffer during protein purification in the MST assay. The purified protein was mixed with RED-tris-NTA 2nd Generation dye (NanoTemper, MO-L018). Next, serially diluted peptides were mixed with the labeled protein. The mixtures were incubated for 15 min at room temperature, then the capillaries were loaded and the samples were assessed at 3% LED/excitation power and medium MST power. All peptides used in this study were synthesized in GL Biochem (Shanghai). The peptide sequence is provided as Source Data 5. The MST data were analyzed with MO.Affinity Analysis software.

hMRP4 = target: T2, hMRP4 (Homo sapiens, UniProt O15439); assay: MST binding assay, hMRP4; conditions: MST, three independent measurements
T2 sequence (O15439 1-1325): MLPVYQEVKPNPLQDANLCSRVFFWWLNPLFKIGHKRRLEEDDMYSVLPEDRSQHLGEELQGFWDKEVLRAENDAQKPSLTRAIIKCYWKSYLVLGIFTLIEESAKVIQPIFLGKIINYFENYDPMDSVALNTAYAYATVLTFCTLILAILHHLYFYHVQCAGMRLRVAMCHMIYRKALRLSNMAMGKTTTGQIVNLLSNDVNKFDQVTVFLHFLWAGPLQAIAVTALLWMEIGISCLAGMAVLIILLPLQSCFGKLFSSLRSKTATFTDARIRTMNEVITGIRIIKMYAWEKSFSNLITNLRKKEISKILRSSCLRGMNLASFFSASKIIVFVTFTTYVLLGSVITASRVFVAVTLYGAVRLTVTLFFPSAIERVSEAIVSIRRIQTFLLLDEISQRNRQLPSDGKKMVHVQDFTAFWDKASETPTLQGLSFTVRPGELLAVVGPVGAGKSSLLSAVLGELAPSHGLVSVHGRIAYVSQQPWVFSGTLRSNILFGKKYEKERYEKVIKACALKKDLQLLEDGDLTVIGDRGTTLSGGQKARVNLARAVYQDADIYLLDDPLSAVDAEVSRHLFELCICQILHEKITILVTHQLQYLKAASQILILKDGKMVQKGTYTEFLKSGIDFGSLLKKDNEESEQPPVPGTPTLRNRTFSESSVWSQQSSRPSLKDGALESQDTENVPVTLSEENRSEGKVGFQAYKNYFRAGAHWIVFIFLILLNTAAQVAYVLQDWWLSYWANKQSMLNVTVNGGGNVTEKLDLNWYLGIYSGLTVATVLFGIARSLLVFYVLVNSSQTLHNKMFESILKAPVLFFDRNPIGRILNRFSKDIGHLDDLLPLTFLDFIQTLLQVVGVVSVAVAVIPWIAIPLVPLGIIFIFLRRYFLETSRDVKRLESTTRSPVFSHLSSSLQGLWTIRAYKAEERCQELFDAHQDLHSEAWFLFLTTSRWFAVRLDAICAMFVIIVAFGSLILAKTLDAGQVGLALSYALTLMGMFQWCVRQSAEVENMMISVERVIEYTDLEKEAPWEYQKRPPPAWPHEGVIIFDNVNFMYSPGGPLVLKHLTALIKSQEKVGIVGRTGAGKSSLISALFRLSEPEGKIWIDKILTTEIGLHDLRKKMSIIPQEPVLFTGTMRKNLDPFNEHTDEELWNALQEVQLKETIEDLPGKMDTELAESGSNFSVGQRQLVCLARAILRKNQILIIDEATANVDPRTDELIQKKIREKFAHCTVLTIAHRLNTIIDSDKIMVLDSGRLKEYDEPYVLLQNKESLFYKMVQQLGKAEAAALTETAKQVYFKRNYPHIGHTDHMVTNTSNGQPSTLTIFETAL

CSKFRRTRPLECQDALETAARAEGLSLDASMHSQLRILDEC (cysteines drawn unpaired) [M5PI]
inhibition of doxorubicin transport, in words (GFP-hMRP5): contained a relatively higher amount of doxorubicin than oocytes expressing only hMRP5 | binding affinity to hMRP5, in words (hMRP5-Δ1-94): stronger hMRP5 affinity than selected anticancer drugs | binding affinity to hMRP5, in words (hMRP5-Δ1-94; listed as Cys35-Cys75 peptide): higher affinity for hMRP5 compared to the original Asp35-Glu75 peptide | binding affinity to hMRP5, in words (hMRP5-Δ1-94; listed as D35C-E75C): highest affinity for hMRP5 among these peptides; also recorded: higher binding affinity to hMRP5 than the well-studied substrate doxorubicin and inhibitor trequinsin | binding affinity to hMRP4, in words (hMRP4): not detectable; also recorded: could not be estimated through MST test; also recorded: rarely
